According to article PMC7927014, “Novel Small Molecule Hsp90/Cdc37 Interface Inhibitors Indirectly Target K-Ras-Signaling” (Cancers, 2021):
Counter-ions that a name gives are not always drawn.

Experiments:
Hsp90/Cdc37 [1] = molecular target: T1, Hsp90/Cdc37 (Homo sapiens, UniProt P07900); assay: Hsp90/Cdc37 split Renilla luciferase assay, full length Hsp90 (cell lysate; IC50 and 20 μM validation); type: biochemical; details: for normalized RLU / Average RLU: MolPort Screening-3, tested concentration of drugs 20 μM; for normalized RLU: RLU normalized to DMSO (=1.00); for Average RLU: average of 3 wells (DMSO 248028); for IC50: full length Hsp90, split Renilla luciferase assay, cell lysate
T1 construct: The Hsp90/Cdc37 split Renilla luciferase assay using the full length Hsp90 for the compound screening was described previously; expressed in transfected cells; host or cells: HEK293 EBNA cells, cleared lysates
Experimental: (§1) In the second in silico screening of the FIMM database, we employed the four identified chemical scaffolds (Figure S2B) for the visual inspection of the FIMM compound library. […] All of the purchased compounds were validated in vitro at 20 μM using the split Renilla luciferase assay.
(§2) The Hsp90/Cdc37 split Renilla luciferase assay using the full length Hsp90 for the compound screening was described previously. […] After 48 h, the cells were trypsinized and washed with PBS. The harvested cells were lysed in 1 mL of the 1x lysis buffer provided in the Renilla Luciferase Reporter Assay System Kit from Promega (cat. E2820), and were incubated on ice for 10 min. The cell lysates were then cleared by centrifugation at 13,000× g for 1 min. […] After this, the screening/test compounds or DMSO—as indicated—were added to each well. In total, 5 µL NRL-Hsp90- or NRL-N-Hsp90-lysate was added to each well, one row at a time. Subsequently, the plate was incubated for 5 min at room temperature (RT). […] Just before the reading, 20 µL assay buffer containing 2× Renilla luciferase substrate (coelenterazine) was added. For the FIMM screening, sample wells were read on a PHERAstar plate reader (BMG LABTECH) at a gain level of 4000, after 10 s shaking, using a hypomorph of NRL-Hsp90. For the subsequent validations of the compounds, sample wells with the above-described assay constructs were read using a synergy H1 Hybrid Multi-Mode reader (BioTek) in the luminescence detection mode, as described previously in detail.

N-Hsp90/Cdc37 = molecular target: T2, N-Hsp90/Cdc37 (Homo sapiens, UniProt P07900); assay: N-Hsp90/Cdc37 split Renilla luciferase assay (N-terminal Hsp90 fragment, residues 1-223); type: biochemical; details: cell lysate
T2 construct: only the N-terminal ATP-ase domain of Hsp90 (N-Hsp90, residues 1-223); expressed in transfected cells; host or cells: HEK293 EBNA cells, cleared lysates
Experimental: as §2

Hsp90/Cdc37 [2] = assay: FIMM screening in split Renilla luciferase assay with hypomorphic NRL-Hsp90 construct, 20 μM; type: biochemical; details: for normalized RLU (FIMM Screening-2, scaffold based) / normalized RLU (FIMM Screening-1): DMSO = 1.00; for Average RLU (FIMM Screening-2, scaffold based) / Average RLU (FIMM Screening-1): mean of 3 wells; for Average RLU (FIMM Screening-2, scaffold based): DMSO 51006; for Average RLU (FIMM Screening-1): DMSO 50019
Experimental: as §1, §2

Hsp90α (N-terminal) = molecular target: T3, Hsp90α (N-terminal) (Homo sapiens, UniProt P07900); assay: Hsp90 N-terminal ATP-binding site competition assay (FITC-geldanamycin fluorescence polarization); details: 20 μM compound
T3 construct: purchased BPS Bioscience 50298
Experimental: The reaction was initiated by adding 35 ng/μL purified recombinant Hsp90α, and was incubated at RT with slow shaking for 2 h. All of the reactions were performed in a black, low binding NUNC microtiter plate, included in the kit, and the total reaction volume was 50 μL. The enzyme control was measured without the test compound, and the enzyme background control was measured without the test compound or Hsp90α. […] All of the controls and the blank contained 10% DMSO, as did all of the samples of the test compounds. All of the samples were analyzed as duplicates. […] The blank value was subtracted from all of the other values, and the fluorescence polarization was determined as:(1) mP = ((III − I⊥)/(III+ I⊥)) × 1000 where III is the intensity of the parallel, and I┴ the intensity of the perpendicular polarized light.

HCC-44 cells = assay: Tumorosphere assay (low adhesion, serum-free 3D spheroid culture); type: cell-based; details: HCC-44, 20 μM, 72 h
Experimental: (§3) Per well, 2000 cells were seeded in flat bottom 96-well suspension culture plates (cat. no. 655185, Cellstar, Greiner Bio-One) in 100 µL DMEM or RPMI media containing 1× B27 (cat. no. 17504044, Gibco, Thermo Fisher Scientific), 25 ng/mL EGF (cat. no. E9644, Sigma-Aldrich), and 25 ng/mL FGF (cat. no. RP-8628, Thermo Fisher Scientific), 20% MethoCult H4100 (cat. no. 04100, […] Technologies). After 2 days, 50 µL media containing 0.3% DMSO or 3× the concentration of the indicated compounds were added to the wells in a 1:2 dilution-series, starting at 100 µM. After 72 h of treatment, 10% (v/v) alamarBlue reagent (cat. no. DAL1100, Thermo Fisher Scientific) was added to each well. Then, the fluorescence intensity (excitation 560 nm and emission 590 nm) was measured after 4 h using a H1 Hybrid Multi-Mode reader (BioTek).

MDA-MB-231 cells = assay: as above; type: cell-based; details: MDA-MB-231, 20 μM, 72 h
Experimental: as §3

MIA PaCa-2 cells = assay: as above; type: cell-based; details: MIA PaCa-2, 20 μM, 72 h
Experimental: as §3

SK-BR-3 cells = assay: as above; type: cell-based; details: SK-BR-3, 20 μM, 72 h
Experimental: as §3

With O=C(O[C@@H]1Cc2c(O)cc(O)cc2O[C@@H]1c1ccc(O)c(O)c1)c1cc(O)c(O)c(O)c1 [M15, (2R,3R)-2-(3,4-dihydroxyphenyl)-5,7-dihydroxy-3,4-dihydro-2H-1-benzopyran-3-yl 3,4,5-trihydroxybenzoate (epicatechin gallate)] the “normalized RLU” value (Hsp90/Cdc37 [1]) was 0.33, the “Average RLU” value (Hsp90/Cdc37 [1]) was 80961 RLU and the IC50 (Hsp90/Cdc37 [1]) was 28 ± 4 µM. The IC50 (N-Hsp90/Cdc37) was 4.8 ± 0.7 µM.

With N=C(N)SCc1cc(=O)[nH]c(=O)[nH]1 [SC5, {[(2,6-dioxo-1,2,3,6-tetrahydropyrimidin-4-yl)methyl]sulfanyl}methanimidamide] the “normalized RLU (FIMM Screening-2, scaffold based)” value (Hsp90/Cdc37 [2]) was 0.39 and the “Average RLU (FIMM Screening-2, scaffold based)” value (Hsp90/Cdc37 [2]) was 19772 RLU.

For O=C(CSc1nc2ccccc2s1)c1ccc(O)c(O)c1 [SC9, 2-(1,3-benzothiazol-2-ylsulfanyl)-1-(3,4-dihydroxyphenyl)ethan-1-one], the IC50 (Hsp90/Cdc37 [1]) was 72 ± 10 µM, the IC50 (N-Hsp90/Cdc37) was 64 ± 9 µM and the “normalized RLU (FIMM Screening-2, scaffold based)” value (Hsp90/Cdc37 [2]) was 0.64. The “Average RLU (FIMM Screening-2, scaffold based)” value (Hsp90/Cdc37 [2]) was 32657 RLU.

With O=C(O)c1cc(S(=O)(=O)Nc2cccc(Cl)c2)ccc1O [SC22, 5-[(3-chlorophenyl)sulfamoyl]-2-hydroxybenzoic acid] the “normalized RLU (FIMM Screening-2, scaffold based)” value (Hsp90/Cdc37 [2]) was 0.73 and the “Average RLU (FIMM Screening-2, scaffold based)” value (Hsp90/Cdc37 [2]) was 37332 RLU.

For O=c1c(O)cc([C@H]2Oc3cc(O)cc(O)c3C[C@H]2O)cc2c([C@H]3Oc4cc(O)cc(O)c4C[C@H]3O)cc(O)c(O)c12 [compound 1, Theaflavin], the IC50 (Hsp90/Cdc37 [1]) was 29.3 µM, the “normalized RLU (FIMM Screening-1)” value (Hsp90/Cdc37 [2]) was 0.25 and the “Average RLU (FIMM Screening-1)” value (Hsp90/Cdc37 [2]) was 12261 RLU.

In the case of O=C(O[C@@H]1Cc2c(O)cc(O)cc2O[C@@H]1c1cc(O)c(=O)c2c(O)c(O)cc([C@H]3Oc4cc(O)cc(O)c4C[C@H]3OC(=O)c3cc(O)c(O)c(O)c3)c2c1)c1cc(O)c(O)c(O)c1 [compound 2, Theaflavin 3,3-digallate], the IC50 (Hsp90/Cdc37 [1]) is reported as 75 ± 26 µM, the IC50 (N-Hsp90/Cdc37) is reported as 81 ± 16 µM and the “normalized RLU (FIMM Screening-1)” value (Hsp90/Cdc37 [2]) is reported as 0.12. The “Average RLU (FIMM Screening-1)” value (Hsp90/Cdc37 [2]) was 5883 RLU.

For O=C(O[C@@H]1Cc2c(O)cc(O)cc2O[C@@H]1c1cc(O)c(O)c(O)c1)c1cc(O)c(O)c(O)c1 [compound 3, Epigallocatechin gallate], the IC50 (Hsp90/Cdc37 [1]) was 88 ± 23 µM, the IC50 (N-Hsp90/Cdc37) was 57 ± 14 µM and the “normalized RLU (FIMM Screening-1)” value (Hsp90/Cdc37 [2]) was 0.45. The “Average RLU (FIMM Screening-1)” value (Hsp90/Cdc37 [2]) was 22619 RLU.

NC[C@@H]1O[C@H](O[C@H]2[C@@H](O)[C@H](O[C@@H]3[C@@H](O)[C@H](N)C[C@H](N)[C@H]3O[C@H]3O[C@H](CO)[C@@H](O)[C@H](O)[C@H]3N)O[C@@H]2CO)[C@H](N)[C@@H](O)[C@@H]1O [compound 6, Paromomycin sulfate, reference compound] was tested, and the “normalized RLU (FIMM Screening-1)” value (Hsp90/Cdc37 [2]) was 0.67 and the “Average RLU (FIMM Screening-1)” value (Hsp90/Cdc37 [2]) was 33633 RLU.

With Cc1ccc(Nc2ccc(C(=O)O)cc2N)cc1 [compound 7, 3-amino-4-(4-toluidino)benzoic acid] the IC50 (Hsp90/Cdc37 [1]) was 177 ± 31 µM, the IC50 (N-Hsp90/Cdc37) was 322 ± 50 µM and the “normalized RLU (FIMM Screening-1)” value (Hsp90/Cdc37 [2]) was 0.56. For the same molecule, the “Average RLU (FIMM Screening-1)” value (Hsp90/Cdc37 [2]) was 28120 RLU.

O=C(O[C@@H]1Cc2c(O)cc(O)cc2O[C@@H]1c1cc(O)c(=O)c2c(O)c(O)cc([C@H]3Oc4cc(O)cc(O)c4C[C@H]3O)c2c1)c1cc(O)c(O)c(O)c1 [compound 8, Theaflavin monogallates] was tested, and the IC50 (Hsp90/Cdc37 [1]) was 14.1 µM, the “normalized RLU (FIMM Screening-1)” value (Hsp90/Cdc37 [2]) was 0.25 and the “Average RLU (FIMM Screening-1)” value (Hsp90/Cdc37 [2]) was 12688 RLU.

Cc1cc(OCC(=O)Nc2ccccc2C(=O)O)cc(C)c1Cl [×1127, 2-[2-(4-chloro-3,5-dimethylphenoxy)acetamido]benzoic acid] was tested, and the IC50 (Hsp90/Cdc37 [1]) was 41 ± 10 µM, the IC50 (N-Hsp90/Cdc37) was 11 ± 1 µM and the “normalized RLU (FIMM Screening-2, scaffold based)” value (Hsp90/Cdc37 [2]) was 0.66. The “Average RLU (FIMM Screening-2, scaffold based)” value (Hsp90/Cdc37 [2]) was 33660 RLU.

O=C(CSS(=O)(=O)O)Nc1cccc(C(F)(F)F)c1 [×1625, [({[3-(trifluoromethyl)phenyl]carbamoyl}methyl)sulfanyl]sulfonate] was tested, and the “normalized RLU” value (Hsp90/Cdc37 [1]) was 0.47, the “Average RLU” value (Hsp90/Cdc37 [1]) was 117361 RLU and the IC50 (Hsp90/Cdc37 [1]) was 41 ± 8 µM. For the same molecule, the IC50 (N-Hsp90/Cdc37) was 94 ± 3 µM, the “competition with FITC-geldanamycin (ATP-pocket binding, polarization signal)” value (Hsp90α (N-terminal)) was “None of these four compounds displaced” and the “effect on spheroid formation” value (HCC-44 cells) was “did not decrease”. The “effect on spheroid formation” value (MDA-MB-231 cells) was “did not decrease”, the “effect on spheroid formation” value (MIA PaCa-2 cells) was “did not decrease” and the “effect on spheroid formation” value (SK-BR-3 cells) was “did not decrease”.

For O=c1c(O)c(-c2ccc(O)c(O)c2)oc2cc(O)cc(O)c12 [×1742, 2-(3,4-dihydroxyphenyl)-3,5,7-trihydroxy-4H-chromen-4-one dihydrate (quercetin dihydrate)], the “normalized RLU” value (Hsp90/Cdc37 [1]) was 0.40, the “Average RLU” value (Hsp90/Cdc37 [1]) was 100349 RLU and the “competition with FITC-geldanamycin (ATP-pocket binding, polarization signal)” value (Hsp90α (N-terminal)) was “None of these four compounds displaced”. The “effect on spheroid formation” value (HCC-44 cells) was “did not decrease”, the “effect on spheroid formation” value (MDA-MB-231 cells) was “significantly increased” and the “effect on spheroid formation” value (MIA PaCa-2 cells) was “significantly increased”. For the same molecule, the “effect on spheroid formation” value (SK-BR-3 cells) was “did not decrease”.

In the case of NC(CSS(=O)(=O)O)=NCCC12CC3CC(CC(O)(C3)C1)C2 [×7648, 1-[2-[(1-amino-2-sulfosulfanylethylidene)amino]ethyl]-3-hydroxyadamantane], the IC50 (Hsp90/Cdc37 [1]) is reported as 18 ± 2 µM, the IC50 (N-Hsp90/Cdc37) is reported as 14 ± 4 µM and the “normalized RLU (FIMM Screening-1)” value (Hsp90/Cdc37 [2]) is reported as 0.22. For the same molecule, the “Average RLU (FIMM Screening-1)” value (Hsp90/Cdc37 [2]) was 10978 RLU.

With Enamine compound T5807719 [compound 4] the “normalized RLU (FIMM Screening-1)” value (Hsp90/Cdc37 [2]) was 0.48 and the “Average RLU (FIMM Screening-1)” value (Hsp90/Cdc37 [2]) was 24009 RLU.

In the case of Enamine compound T6605315 [compound 5], the “normalized RLU (FIMM Screening-1)” value (Hsp90/Cdc37 [2]) is reported as 0.57 and the “Average RLU (FIMM Screening-1)” value (Hsp90/Cdc37 [2]) is reported as 28274 RLU.
